Experimental data from ChEMBL document CHEMBL4765323, “Design, synthesis, and biological evaluation of novel miconazole analogues containing selenium as potent antifungal agents” (Eur J Med Chem, 2020).
Values after ≈ are worked out from the molar mass of the structure shown.

What was measured:
Type in all cases: functional
[1] = tested on: Candida albicans; assay: Antifungal activity against Candida albicans ATCC SC5314 measured after 24 hrs by micro-broth dilution assay
[2] = tested on: Candida albicans; assay: Antifungal activity against fluconazole-resistant Candida albicans strain 904 measured after 24 hrs by micro-broth dilution assay
[3] = tested on: Candida albicans; assay: Antifungal activity against Candida albicans CPCC400616 measured after 24 hrs by micro-broth dilution assay
[4] = tested on: Candida albicans; assay: Antifungal activity against fluconazole-resistant Candida albicans 17 measured after 24 hrs by micro-broth dilution assay
[5] = tested on: Candida parapsilosis; assay: Antifungal activity against Candida parapsilosis ATCC 22019 measured after 24 hrs by micro-broth dilution assay; settings: Lodderomyces parapsilosis
[6] = tested on: Pichia kudriavzevii; assay: Antifungal activity against Candida krusei AS 2.1045 measured after 24 hrs by micro-broth dilution assay
[7] = tested on: [Candida] zeylanoides; assay: Antifungal activity against Candida zeylanoides CMGCC2.3739 measured after 24 hrs by micro-broth dilution assay; settings: Dujonia zeylanoides
[8] = tested on: Candida albicans; assay: Antifungal activity against fluconazole-resistant Candida albicans 632 measured after 24 hrs by micro-broth dilution assay
[9] = tested on: Nakaseomyces glabratus; assay: Antifungal activity against clinical isolate Candida glabrata measured after 24 hrs by micro-broth dilution assay
[10] = tested on: Candida albicans; assay: Antifungal activity against fluconazole-resistant Candida albicans CaR measured after 24 hrs by micro-broth dilution assay
[11] = tested on: Cryptococcus neoformans; assay: Antifungal activity against Cryptococcus neoformans CGMCC2.3161 measured after 72 hrs by micro-broth dilution assay
[12] = tested on: Candida albicans; assay: Antifungal activity against Candida albicans 901 measured after 24 hrs by micro-broth dilution assay
[13] = tested on: Aspergillus fumigatus; assay: Antifungal activity against Aspergillus fumigatus CGMCC 3.7795 measured after 72 hrs by micro-broth dilution assay

| SMILES | MIC [1] | MIC [2] | MIC [3] | MIC [4] | MIC [5] | MIC [6] | MIC [7] | MIC [8] | MIC [9] | MIC [10] | MIC [11] | MIC [12] | MIC [13] |
| --- | --- | --- | --- | --- | --- | --- | --- | --- | --- | --- | --- | --- | --- |
| COc1cc(C[Se]C(Cn2ccnc2)c2ccc(Cl)cc2Cl)cc(OC)c1 (stereo not given) | 0.13 µg/mL (≈ 0.276 µM) | 128 µg/mL (≈ 272 µM) | 0.13 µg/mL (≈ 0.276 µM) | 32 µg/mL (≈ 68 µM) | 0.5 µg/mL (≈ 1.06 µM) | 8 µg/mL (≈ 17 µM) | 1 µg/mL (≈ 2.13 µM) | 32 µg/mL (≈ 68 µM) | 0.25 µg/mL (≈ 0.532 µM) | 4 µg/mL (≈ 8.51 µM) | 0.5 µg/mL (≈ 1.06 µM) | 4 µg/mL (≈ 8.51 µM) | 1 µg/mL (≈ 2.13 µM) |
| Cc1ccc(C[Se]C(Cn2ccnc2)c2ccc(Cl)cc2Cl)cc1C (stereo not given) | 4 µg/mL (≈ 9.13 µM) | 128 µg/mL (≈ 292 µM) | 0.25 µg/mL (≈ 0.57 µM) | 8 µg/mL (≈ 18.3 µM) | > 128 µg/mL | 128 µg/mL (≈ 292 µM) | 128 µg/mL (≈ 292 µM) | 16 µg/mL (≈ 36.5 µM) | 0.5 µg/mL (≈ 1.14 µM) | 128 µg/mL (≈ 292 µM) | 0.5 µg/mL (≈ 1.14 µM) | 32 µg/mL (≈ 73 µM) | 4 µg/mL (≈ 9.13 µM) |
| COc1ccc(C[Se]C(Cn2ccnc2)c2ccc(F)cc2F)cc1 (stereo not given) | 0.13 µg/mL (≈ 0.319 µM) | 2 µg/mL (≈ 4.91 µM) | 0.25 µg/mL (≈ 0.614 µM) | 8 µg/mL (≈ 19.6 µM) | 0.25 µg/mL (≈ 0.614 µM) | 2 µg/mL (≈ 4.91 µM) | 2 µg/mL (≈ 4.91 µM) | 8 µg/mL (≈ 19.6 µM) | 0.5 µg/mL (≈ 1.23 µM) | 8 µg/mL (≈ 19.6 µM) | 0.5 µg/mL (≈ 1.23 µM) | 8 µg/mL (≈ 19.6 µM) | 1 µg/mL (≈ 2.46 µM) |
| Fc1cccc(C[Se]C(Cn2ccnc2)c2ccc(Cl)cc2Cl)c1 (stereo not given) | 0.03 µg/mL (≈ 0.0701 µM) | 0.25 µg/mL (≈ 0.584 µM) | 0.03 µg/mL (≈ 0.0701 µM) | 0.5 µg/mL (≈ 1.17 µM) | 0.02 µg/mL (≈ 0.0467 µM) | 2 µg/mL (≈ 4.67 µM) | 1 µg/mL (≈ 2.34 µM) | 1 µg/mL (≈ 2.34 µM) | 0.5 µg/mL (≈ 1.17 µM) | 1 µg/mL (≈ 2.34 µM) | 0.25 µg/mL (≈ 0.584 µM) | 0.25 µg/mL (≈ 0.584 µM) | 2 µg/mL (≈ 4.67 µM) |
| COc1cccc(C[Se]C(Cn2ccnc2)c2ccc(Cl)cc2Cl)c1 (stereo not given) | 0.06 µg/mL (≈ 0.136 µM) | 1 µg/mL (≈ 2.27 µM) | 0.06 µg/mL (≈ 0.136 µM) | 4 µg/mL (≈ 9.09 µM) | 0.13 µg/mL (≈ 0.295 µM) | 1 µg/mL (≈ 2.27 µM) | 1 µg/mL (≈ 2.27 µM) | 2 µg/mL (≈ 4.54 µM) | 0.25 µg/mL (≈ 0.568 µM) | 2 µg/mL (≈ 4.54 µM) | 0.13 µg/mL (≈ 0.295 µM) | 1 µg/mL (≈ 2.27 µM) | 2 µg/mL (≈ 4.54 µM) |
| Cc1ccc(C[Se]C(Cn2ccnc2)c2ccc(Cl)cc2Cl)cc1 (stereo not given) | 0.13 µg/mL (≈ 0.306 µM) | > 128 µg/mL | 0.03 µg/mL (≈ 0.0707 µM) | 32 µg/mL (≈ 75.4 µM) | 1 µg/mL (≈ 2.36 µM) | 4 µg/mL (≈ 9.43 µM) | 16 µg/mL (≈ 37.7 µM) | 128 µg/mL (≈ 302 µM) | 1 µg/mL (≈ 2.36 µM) | 16 µg/mL (≈ 37.7 µM) | 0.25 µg/mL (≈ 0.589 µM) | 64 µg/mL (≈ 151 µM) | 2 µg/mL (≈ 4.71 µM) |
| COc1cc(Br)c(C[Se]C(Cn2ccnc2)c2ccc(Cl)cc2Cl)cc1OC (stereo not given) | 0.03 µg/mL (≈ 0.0546 µM) | 32 µg/mL (≈ 58.3 µM) | 0.25 µg/mL (≈ 0.455 µM) | > 128 µg/mL | > 128 µg/mL | > 128 µg/mL | > 128 µg/mL | > 128 µg/mL | 0.5 µg/mL (≈ 0.91 µM) | 128 µg/mL (≈ 233 µM) | 0.5 µg/mL (≈ 0.91 µM) | 128 µg/mL (≈ 233 µM) | 16 µg/mL (≈ 29.1 µM) |
| Fc1ccc(C(Cn2ccnc2)[Se]Cc2ccc(Cl)cc2)c(F)c1 (stereo not given) | 0.03 µg/mL (≈ 0.0729 µM) | 2 µg/mL (≈ 4.86 µM) | 0.5 µg/mL (≈ 1.21 µM) | 8 µg/mL (≈ 19.4 µM) | 0.13 µg/mL (≈ 0.316 µM) | 0.5 µg/mL (≈ 1.21 µM) | 1 µg/mL (≈ 2.43 µM) | 64 µg/mL (≈ 155 µM) | 1 µg/mL (≈ 2.43 µM) | 16 µg/mL (≈ 38.9 µM) | 0.5 µg/mL (≈ 1.21 µM) | 8 µg/mL (≈ 19.4 µM) | 1 µg/mL (≈ 2.43 µM) |
| Cc1ccc(C[Se]C(Cn2ccnc2)c2ccc(F)cc2F)cc1 (stereo not given) | 0.06 µg/mL (≈ 0.153 µM) | 4 µg/mL (≈ 10.2 µM) | 0.25 µg/mL (≈ 0.639 µM) | 2 µg/mL (≈ 5.11 µM) | 0.25 µg/mL (≈ 0.639 µM) | 2 µg/mL (≈ 5.11 µM) | 0.5 µg/mL (≈ 1.28 µM) | 16 µg/mL (≈ 40.9 µM) | 1 µg/mL (≈ 2.56 µM) | 16 µg/mL (≈ 40.9 µM) | 0.5 µg/mL (≈ 1.28 µM) | 1 µg/mL (≈ 2.56 µM) | 1 µg/mL (≈ 2.56 µM) |
| COc1cccc(C[Se]C(Cn2ccnc2)c2ccc(F)cc2F)c1 (stereo not given) | 0.13 µg/mL (≈ 0.319 µM) | 16 µg/mL (≈ 39.3 µM) | 0.06 µg/mL (≈ 0.147 µM) | 16 µg/mL (≈ 39.3 µM) | 0.5 µg/mL (≈ 1.23 µM) | 2 µg/mL (≈ 4.91 µM) | 1 µg/mL (≈ 2.46 µM) | 2 µg/mL (≈ 4.91 µM) | 1 µg/mL (≈ 2.46 µM) | 4 µg/mL (≈ 9.82 µM) | 0.5 µg/mL (≈ 1.23 µM) | 8 µg/mL (≈ 19.6 µM) | 2 µg/mL (≈ 4.91 µM) |
